Source: ChEMBL document CHEMBL5584333, “Evo312: An Evodiamine Analog and Novel PKCβI Inhibitor with Potent Antitumor Activity in Gemcitabine-Resistant Pancreatic Cancer” (J Med Chem, 2024)
Active and inactive are the calls of the source. The rule behind the calls is not given here.

Experiments:
[1] = Toxicity in male BALB/c nude mouse at 40 mg/kg, ip; format: organism-based; settings: in vivo
[2] = system: Gemcitabine-resistant PANC-1; assay: Cell cycle distribution in human Gemcitabine-resistant PANC-1 cells assessed as sub-G1 phase cells at 120 nM incubated for 24 hrs by RNase/PI staining based flow cytometric analysis (reference value: 0.30 %); format: functional
[3] = biological target: Protein kinase C beta type (Homo sapiens, UniProt P05771); assay: Inhibition of PKCbeta1 in human Gemcitabine-resistant PANC-1 cells incubated for 24 hrs; format: cell-based; settings: dose 40-200 nM
Protein kinase C beta type, sequence (P05771 2-671 limits assumed): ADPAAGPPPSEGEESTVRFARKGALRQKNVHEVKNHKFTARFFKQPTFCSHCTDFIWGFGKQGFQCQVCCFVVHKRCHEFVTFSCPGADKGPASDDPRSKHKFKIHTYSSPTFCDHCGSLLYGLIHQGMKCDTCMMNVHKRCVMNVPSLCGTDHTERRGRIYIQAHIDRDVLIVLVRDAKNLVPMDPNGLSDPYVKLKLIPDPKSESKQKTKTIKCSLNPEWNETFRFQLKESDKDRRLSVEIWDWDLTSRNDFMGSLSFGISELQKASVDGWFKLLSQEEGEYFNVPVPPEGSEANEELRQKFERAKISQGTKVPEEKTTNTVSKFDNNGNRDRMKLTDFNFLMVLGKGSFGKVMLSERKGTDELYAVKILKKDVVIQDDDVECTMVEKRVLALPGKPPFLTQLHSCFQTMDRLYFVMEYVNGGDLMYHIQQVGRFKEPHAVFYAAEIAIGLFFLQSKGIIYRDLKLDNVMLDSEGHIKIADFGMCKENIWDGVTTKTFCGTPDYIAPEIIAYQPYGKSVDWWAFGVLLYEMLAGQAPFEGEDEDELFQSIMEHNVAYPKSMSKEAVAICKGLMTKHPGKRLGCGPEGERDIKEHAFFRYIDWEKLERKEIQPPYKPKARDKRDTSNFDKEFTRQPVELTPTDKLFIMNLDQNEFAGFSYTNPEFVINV

[4] = system: Gemcitabine-resistant PANC-1; assay: Cell cycle distribution in human Gemcitabine-resistant PANC-1 cells assessed as G0-G1 phase cells at 40 nM incubated for 24 hrs by RNase/PI staining based flow cytometric analysis (reference value: 45.21 %); format: functional
[5] = system: Gemcitabine-resistant PANC-1; assay: Induction of apoptosis in human Gemcitabine-resistant PANC-1 cells assessed as total cell death at 40 nM incubated for 48 hrs by Annexin V-FITC/PI staining based flow cytometric analysis relative to control; format: functional
[6] = Cytotoxicity against human MRC5 cells assessed as inhibition of cell growth incubated for 72 hrs by SRB assay; format: toxicity, cell-based
[7] = biological target: T1, Signal transducer and activator of transcription 5A (Homo sapiens) (UniProt P42229); assay: Inhibition of STAT5 phosphorylation in human Gemcitabine-resistant PANC-1 cells at 160 nM incubated for 24 hrs by phospho-kinase array analysis; format: cell-based
T1 sequence (whole entry): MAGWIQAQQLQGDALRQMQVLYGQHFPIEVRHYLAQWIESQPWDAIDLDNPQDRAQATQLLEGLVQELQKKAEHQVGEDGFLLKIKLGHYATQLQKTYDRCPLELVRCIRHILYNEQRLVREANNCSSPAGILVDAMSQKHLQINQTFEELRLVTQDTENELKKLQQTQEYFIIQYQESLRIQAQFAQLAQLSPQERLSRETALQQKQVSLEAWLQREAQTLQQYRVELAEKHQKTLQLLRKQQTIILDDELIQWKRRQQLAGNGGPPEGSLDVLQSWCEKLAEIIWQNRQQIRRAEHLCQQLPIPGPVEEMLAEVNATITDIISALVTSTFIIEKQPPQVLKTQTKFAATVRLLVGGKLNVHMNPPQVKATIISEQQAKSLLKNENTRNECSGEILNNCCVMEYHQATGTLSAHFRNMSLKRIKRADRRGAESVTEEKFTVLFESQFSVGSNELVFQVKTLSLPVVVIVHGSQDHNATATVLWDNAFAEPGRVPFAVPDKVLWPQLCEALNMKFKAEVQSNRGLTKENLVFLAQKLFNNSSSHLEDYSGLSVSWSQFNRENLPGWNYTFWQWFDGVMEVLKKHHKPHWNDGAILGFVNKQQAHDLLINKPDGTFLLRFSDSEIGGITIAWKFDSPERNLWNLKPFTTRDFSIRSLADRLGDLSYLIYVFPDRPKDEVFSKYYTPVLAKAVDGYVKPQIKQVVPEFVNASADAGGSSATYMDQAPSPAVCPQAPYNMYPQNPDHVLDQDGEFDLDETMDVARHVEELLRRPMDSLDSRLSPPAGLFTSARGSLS

[8] = system: Gemcitabine-resistant PANC-1; assay: Cell cycle distribution in human Gemcitabine-resistant PANC-1 cells assessed as G0-G1 phase cells at 80 nM incubated for 24 hrs by RNase/PI staining based flow cytometric analysis (reference value: 45.21 %); format: functional
[9] = system: Gemcitabine-resistant PANC-1; assay: Induction of cell cycle arrest in human Gemcitabine-resistant PANC-1 cells assessed as downregulation of Cdc2 protein expression level at 40 to 160 nM incubated for 24 hrs by Western blot analysis; format: functional, cell-based; settings: dose 40-160 nM
[10] = Toxicity in male BALB/c nude mouse xenografted with human Gemcitabine-resistant PANC-1 cells assessed as body weight change at 10 mg/kg, ip administered three times in a week for 20 days; format: organism-based; settings: in vivo, 480 h, time 20 day
[11] = system: Gemcitabine-resistant PANC-1; assay: Induction of cell cycle arrest in human Gemcitabine-resistant PANC-1 cells assessed as upregulation of p27 protein expression level at 40 to 160 nM incubated for 24 hrs by Western blot analysis; format: functional, cell-based; settings: dose 40-160 nM
[12] = system: Gemcitabine-resistant PANC-1; assay: Cell cycle distribution in human Gemcitabine-resistant PANC-1 cells assessed as sub-G1 phase cells at 40 nM incubated for 24 hrs by RNase/PI staining based flow cytometric analysis (reference value: 0.30 %); format: functional
[13] = system: Gemcitabine-resistant PANC-1; assay: Induction of cell cycle arrest in human Gemcitabine-resistant PANC-1 cells assessed as downregulation of cyclin D1 protein expression level at 40 to 160 nM incubated for 24 hrs by Western blot analysis; format: functional, cell-based; settings: dose 40-160 nM
[14] = Toxicity in male BALB/c nude mouse xenografted with human Gemcitabine-resistant PANC-1 cells at 10 mg/kg, ip administered three times in a week for 20 days; format: organism-based; settings: in vivo, 480 h, time 20 day
[15] = system: Gemcitabine-resistant PANC-1; assay: Cell cycle distribution in human Gemcitabine-resistant PANC-1 cells assessed as G2/M phase cells at 40 nM incubated for 24 hrs by RNase/PI staining based flow cytometric analysis (reference value: 37.53 %); format: functional
[16] = system: Gemcitabine-resistant PANC-1; assay: Induction of apoptosis in human Gemcitabine-resistant PANC-1 cells assessed as upregulation of cleaved caspase-9 level at 160 nM incubated for 48 hrs by Western blot analysis; format: functional, cell-based
[17] = Cytotoxicity against HPDE6c7 cells assessed as inhibition of cell growth incubated for 72 hrs by SRB assay; format: toxicity, cell-based; settings: human
[18] = system: Gemcitabine-resistant PANC-1; assay: Induction of apoptosis in human Gemcitabine-resistant PANC-1 cells assessed as total cell death at 80 nM incubated for 48 hrs by Annexin V-FITC/PI staining based flow cytometric analysis relative to control; format: functional
[19] = system: Gemcitabine-resistant PANC-1; assay: Antitumor activity against human Gemcitabine-resistant PANC-1 cells xenografted in male BALB/c nude mouse assessed as reduction in tumor weight at 10 mg/kg, ip administered three times in a week for 20 days relative to control; format: functional; design: scale not given: the % may be the effect or the level left; settings: time 20 day
[20] = system: Gemcitabine-resistant PANC-1; assay: Cell cycle distribution in human Gemcitabine-resistant PANC-1 cells assessed as G0-G1 phase cells at 160 nM incubated for 24 hrs by RNase/PI staining based flow cytometric analysis (reference value: 45.21 %); format: functional
[21] = system: Gemcitabine-resistant PANC-1; assay: Downregulation of p-PRAS40 expression in human Gemcitabine-resistant PANC-1 cells at 40 to 160 nM incubated for 24 hrs by Western blotting; format: functional, cell-based; settings: dose 40-160 nM
[22] = system: Gemcitabine-resistant PANC-1; assay: Effect on GSK3beta expression in human Gemcitabine-resistant PANC-1 cells at 40 to 160 nM by Western blot analysis; format: functional, cell-based; settings: dose 40-160 nM
[23] = system: Gemcitabine-resistant PANC-1; assay: Cell cycle distribution in human Gemcitabine-resistant PANC-1 cells assessed as S phase cells at 160 nM incubated for 24 hrs by RNase/PI staining based flow cytometric analysis (reference value: 17.32 %); format: functional
[24] = system: Gemcitabine-resistant PANC-1; assay: Downregulation of p-GSK3beta expression in human Gemcitabine-resistant PANC-1 cells at 40 to 160 nM incubated for 24 hrs by Western blotting; format: functional, cell-based; settings: dose 40-160 nM
[25] = system: Gemcitabine-resistant PANC-1; assay: Cell cycle distribution in human Gemcitabine-resistant PANC-1 cells assessed as S phase cells at 80 nM incubated for 24 hrs by RNase/PI staining based flow cytometric analysis (reference value: 17.32 %); format: functional
[26] = system: Gemcitabine-resistant PANC-1; assay: Induction of apoptosis in human Gemcitabine-resistant PANC-1 cells assessed as total cell death at 160 nM incubated for 48 hrs by Annexin V-FITC/PI staining based flow cytometric analysis relative to control; format: functional

SMILES: CC(=O)Oc1ccc2[nH]c3c(c2c1)CCN1C(=O)c2ccccc2N(C)[C@H]31
- Activity [1]: Non-Toxic
- Activity [2]: 1.6%
- inhibition [3]: Dose-Dependent Effect
- Activity [4]: 42.91%
- Activity [5]: 15.83%
- IC50 at 72 h [6]: > 50000 nM
- inhibition [7]: Active
- Activity [8]: 34.14%
- Activity [9]: Active
- Activity [10]: Non-Toxic
- Activity [11]: Active
- Activity [12]: 0.34%
- Activity [13]: Active
- Activity [14]: Non-Toxic
- Activity [15]: 39.38%
- Activity [16]: Active
- IC50 at 72 h [17]: 2950 nM
- Activity [18]: 20.63%
- Activity [19]: 44.89%
- Activity [20]: 26.28%
- Activity [21]: Active
- Activity [22]: inactive
- Activity [23]: 14.05%
- Activity [24]: Active
- Activity [25]: 15.94%
- Activity [26]: 24.95%
